Experimental data as given in PMC5706040, “Reclamation of Marine Chitinous Materials for the Production of α-Glucosidase Inhibitors via Microbial Conversion” (Marine Drugs, 2017).

Experiments:
Test in all cases: absorbance at […] nm, p-nitrophenol release
Rice α-glucosidase = molecular target: T1, Rice α-glucosidase; type: biochemical, Oryza sativa; conditions: pNPG substrate, 0.1 mol/L potassium phosphate pH 7, 37 °C, 20 min preincubation, enzyme 1.0 U/mL
T1 construct: gene Os06g0675700; commercial enzyme from rice, type 4 (Sigma Aldrich)

[1] = molecular target: T2, S. cerevisiae α-glucosidase; type: biochemical, Saccharomyces cerevisiae; conditions: pNPG substrate, 0.1 mol/L potassium phosphate pH 7, 37 °C, 20 min preincubation, enzyme 0.25 U/mL
T2 construct: gene MAL12; commercial yeast enzyme (Sigma Aldrich, Singapore)

[2] = molecular target: T3, B. stearothermophilus α-glucosidase; type: biochemical, Geobacillus stearothermophilus; conditions: pNPG substrate, 0.1 mol/L potassium phosphate pH 7, 37 °C, 20 min preincubation, enzyme 0.10 U/mL
T3 construct: gene exo-alpha-1; commercial enzyme (Sigma Aldrich, Singapore)

[3] = molecular target: T4, Rat intestinal α-glucosidase; type: biochemical; conditions: pNPG substrate, 0.1 mol/L potassium phosphate pH 7, 37 °C, 20 min preincubation, intestinal acetone powder preparation
T4 construct: gene Si; preparation from rat intestinal acetone powder (Sigma Aldrich)

C[C@H]1O[C@H](O[C@H]2[C@H](O)[C@@H](O)[C@@H](O[C@H]3[C@H](O)[C@@H](O)C(O)O[C@@H]3CO)O[C@@H]2CO)[C@H](O)[C@@H](O)[C@@H]1N[C@H]1C=C(CO)[C@@H](O)[C@H](O)[C@H]1O (stereo partly shown) [acarbose]
Inhibition by Acarbose / IC50 (Rice α-glucosidase): 3.04 ± 0.82 µg/mL | α-Glucosidase Inhibition / IC50 [1]: 1095 ± 93 µg/mL | Inhibition by Acarbose / IC50 [2]: 0.042 ± 0.003 µg/mL | Inhibition by Acarbose / IC50 [3]: 78 ± 3.2 µg/mL
